According to PubChem BioAssay AID248 (DTP/NCI, 2004):
Values joined by “and” are separate entries in the source; they are usually repeats but may differ in a detail not shown here. Equal values may be shown once. Toxic doses and inconclusive results are not listed.

Test system: L1210 leukemia ip in BDF1 mice, survival T/C
Assay: NCI In Vivo Anticancer Drug Screen. Data for tumor model L1210 Leukemia (intraperitoneal) in B6D2F1 (BDF1) mice
Conditions: endpoint: mean survival time, higher = longer survival
How it was run: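 Read-out is survival time, reported as the treated-group measurement over the vehicle-control measurement.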

C=CC(CN1CC1)OC(C)=O (configuration not stated)
T/C (dose: 0.25 mg/kg/injection, schedule: Q03DX Z (ip), vehicle: saline): 104 % of control | T/C (dose: 0.5 mg/kg/injection, schedule: Q01DX010 (oral), vehicle: saline): 120 % of control | T/C (dose: 0.5 mg/kg/injection, schedule: Q03DX Z (ip), vehicle: saline): 98 % of control | T/C (dose: 0.95 mg/kg/injection, schedule: Q01DX Z (ip), vehicle: olive oil, sesame oil, peanut oil): 105 % of control | T/C (dose: 0.95 mg/kg/injection, schedule: Q01DX Z (oral), vehicle: olive oil, sesame oil, peanut oil): 100 % of control | T/C (dose: 1.0 mg/kg/injection, schedule: Q03DX Z (ip), vehicle: saline): 106 % of control | T/C (dose: 1.0 mg/kg/injection, schedule: Q07DX Z (ip), vehicle: saline): 105 % of control | T/C (dose: 1.2 mg/kg/injection, schedule: Q01DX Z (ip), vehicle: carboxymethylcellulose (CMC)): 104 % of control | T/C (dose: 1.24 mg/kg/injection, schedule: Q01DX Z (ip), vehicle: carboxymethylcellulose (CMC)): 109 % of control | T/C (dose: 1.3 mg/kg/injection, schedule: Q#A X Z (ip), vehicle: other): 112 % of control | T/C (dose: 1.8 mg/kg/injection, schedule: Q01DX Z (ip), vehicle: carboxymethylcellulose (CMC)): 93 % of control and 98 % of control | T/C (dose: 1.8 mg/kg/injection, schedule: Q01DX Z (oral), vehicle: carboxymethylcellulose (CMC)): 102 % of control | T/C (dose: 1.9 mg/kg/injection, schedule: Q01DX Z (ip), vehicle: olive oil, sesame oil, peanut oil): 116 % of control | T/C (dose: 1.9 mg/kg/injection, schedule: Q01DX Z (oral), vehicle: olive oil, sesame oil, peanut oil): 103 % of control | T/C (dose: 1.9 mg/kg/injection, schedule: Q01DX Z (oral), vehicle: other): 102 % of control | T/C (dose: 2.0 mg/kg/injection, schedule: Q01DX006 (iv), vehicle: saline): 100 % of control | T/C (dose: 2.0 mg/kg/injection, schedule: Q01DX010 (oral), vehicle: saline): 100 % of control | T/C (dose: 2.0 mg/kg/injection, schedule: Q02DX004 (im), vehicle: saline): 116 % of control | T/C (dose: 2.0 mg/kg/injection, schedule: Q07DX Z (ip), vehicle: saline): 95 % of control | T/C (dose: 2.48 mg/kg/injection, schedule: Q01DX Z (ip), vehicle: carboxymethylcellulose (CMC)): 109 % of control | T/C (dose: 2.5 mg/kg/injection, schedule: Q01DX Z (oral), vehicle: saline): 121 % of control | T/C (dose: 2.6 mg/kg/injection, schedule: Q01DX Z (ip), vehicle: other): 117 % of control | T/C (dose: 2.6 mg/kg/injection, schedule: Q01DX Z (sc), vehicle: other): 119 % of control | T/C (dose: 2.7 mg/kg/injection, schedule: Q01DX Z (ip), vehicle: carboxymethylcellulose (CMC)): 118 % of control | T/C (dose: 3.25 mg/kg/injection, schedule: Q01DX Z (ip), vehicle: saline): 151 % of control | T/C (dose: 3.25 mg/kg/injection, schedule: Q01DX Z (oral), vehicle: saline): 161 % of control | T/C (dose: 3.7 mg/kg/injection, schedule: Q01DX Z (ip), vehicle: carboxymethylcellulose (CMC)): 93 % of control | T/C (dose: 3.7 mg/kg/injection, schedule: Q01DX Z (oral), vehicle: carboxymethylcellulose (CMC)): 101 % of control and 90 % of control | T/C (dose: 3.75 mg/kg/injection, schedule: Q01DX Z (ip), vehicle: olive oil, sesame oil, peanut oil): 122 % of control | T/C (dose: 3.75 mg/kg/injection, schedule: Q01DX Z (oral), vehicle: olive oil, sesame oil, peanut oil): 105 % of control | T/C (dose: 3.8 mg/kg/injection, schedule: Q01DX Z (ip), vehicle: olive oil, sesame oil, peanut oil): 90 % of control | T/C (dose: 3.8 mg/kg/injection, schedule: Q01DX Z (oral), vehicle: other): 120 % of control | T/C (dose: 4.0 mg/kg/injection, schedule: Q01DX006 (iv), vehicle: saline): 108 % of control | T/C (dose: 4.0 mg/kg/injection, schedule: Q01DX Z (sc), vehicle: other): 122 % of control | T/C (dose: 4.0 mg/kg/injection, schedule: Q02DX004 (im), vehicle: saline): 120 % of control | T/C (dose: 4.0 mg/kg/injection, schedule: Q07DX Z (ip), vehicle: saline): 115 % of control | T/C (dose: 4.5 mg/kg/injection, schedule: Q#A X Z (ip), vehicle: other): 102 % of control | T/C (dose: 7.5 mg/kg/injection, schedule: Q01DX009 (ip), vehicle: saline): 191 % of control | T/C (dose: 7.5 mg/kg/injection, schedule: Q01DX Z (ip), vehicle: carboxymethylcellulose (CMC)): 104 % of control | T/C (dose: 7.5 mg/kg/injection, schedule: Q01DX Z (ip), vehicle: saline): 259 % of control | T/C (dose: 7.5 mg/kg/injection, schedule: Q01DX Z (oral), vehicle: carboxymethylcellulose (CMC)): 93 % of control and 96 % of control | T/C (dose: 7.5 mg/kg/injection, schedule: Q01DX Z (oral), vehicle: olive oil, sesame oil, peanut oil): 111 % of control | T/C (dose: 7.5 mg/kg/injection, schedule: Q01DX Z (oral), vehicle: saline): 150 % of control | T/C (dose: 7.6 mg/kg/injection, schedule: Q01DX Z (oral), vehicle: olive oil, sesame oil, peanut oil): 150 % of control | T/C (dose: 7.6 mg/kg/injection, schedule: Q01DX Z (oral), vehicle: other): 88 % of control | T/C (dose: 8.0 mg/kg/injection, schedule: Q03DX Z (ip), vehicle: other): 153 % of control | T/C (dose: 8.0 mg/kg/injection, schedule: Q07DX Z (ip), vehicle: saline): 121 % of control | T/C (dose: 9.0 mg/kg/injection, schedule: Q01DX Z (ip), vehicle: other): 100 % of control | T/C (dose: 10.0 mg/kg/injection, schedule: Q01DX Z (oral), vehicle: saline): 169 % of control | T/C (dose: 11.0 mg/kg/injection, schedule: Q01DX001 (ip), vehicle: saline): 109 % of control and 118 % of control | T/C (dose: 12.0 mg/kg/injection, schedule: Q03DX Z (ip), vehicle: other): 159 % of control | T/C (dose: 14.85 mg/kg/injection, schedule: Q01DX Z (ip), vehicle: carboxymethylcellulose (CMC)): 96 % of control | T/C (dose: 15.0 mg/kg/injection, schedule: Q01DX009 (ip), vehicle: saline): 107 % of control | T/C (dose: 15.0 mg/kg/injection, schedule: Q01DX Z (ip), vehicle: carboxymethylcellulose (CMC)): 120 % of control | T/C (dose: 15.0 mg/kg/injection, schedule: Q01DX Z (ip), vehicle: saline): 111 % of control | T/C (dose: 15.0 mg/kg/injection, schedule: Q01DX Z (oral), vehicle: carboxymethylcellulose (CMC)): 102 % of control and 117 % of control | T/C (dose: 15.0 mg/kg/injection, schedule: Q01DX Z (oral), vehicle: saline): 108 % of control | T/C (dose: 15.1 mg/kg/injection, schedule: Q01DX Z (oral), vehicle: olive oil, sesame oil, peanut oil): 104 % of control | T/C (dose: 15.1 mg/kg/injection, schedule: Q01DX Z (oral), vehicle: other): 96 % of control | T/C (dose: 16.0 mg/kg/injection, schedule: Q02DX004 (im), vehicle: saline): 189 % of control | T/C (dose: 17.0 mg/kg/injection, schedule: Q01DX001 (ip), vehicle: saline): 116 % of control | T/C (dose: 18.0 mg/kg/injection, schedule: Q03DX Z (ip), vehicle: other): 112 % of control | T/C (dose: 18.0 mg/kg/injection, schedule: Q07DX Z (ip), vehicle: other): 175 % of control | T/C (dose: 19.8 mg/kg/injection, schedule: Q01DX Z (ip), vehicle: carboxymethylcellulose (CMC)): 96 % of control | T/C (dose: 20.0 mg/kg/injection, schedule: Q01DX Z (oral), vehicle: saline): 106 % of control | T/C (dose: 25.0 mg/kg/injection, schedule: Q01DX001 (ip), vehicle: saline): 153 % of control | T/C (dose: 27.0 mg/kg/injection, schedule: Q03DX Z (ip), vehicle: other): 89 % of control | T/C (dose: 28.0 mg/kg/injection, schedule: Q07DX Z (ip), vehicle: other): 158 % of control | T/C (dose: 30.0 mg/kg/injection, schedule: Q01DX Z (ip), vehicle: saline): 105 % of control | T/C (dose: 30.0 mg/kg/injection, schedule: Q01DX Z (oral), vehicle: carboxymethylcellulose (CMC)): 101 % of control and 113 % of control | T/C (dose: 30.0 mg/kg/injection, schedule: Q01DX Z (oral), vehicle: saline): 111 % of control and 88 % of control | T/C (dose: 32.0 mg/kg/injection, schedule: Q02DX004 (im), vehicle: saline): 97 % of control | T/C (dose: 32.0 mg/kg/injection, schedule: Q07DX Z (ip), vehicle: saline): 210 % of control | T/C (dose: 50.0 mg/kg/injection, schedule: Q01DX001 (ip), vehicle: saline): 94 % of control | T/C (dose: 60.0 mg/kg/injection, schedule: Q01DX Z (ip), vehicle: saline): 116 % of control | T/C (dose: 60.0 mg/kg/injection, schedule: Q01DX Z (oral), vehicle: saline): 113 % of control

COc1ccccc1NC(=O)Nc1ccc(N(C)C)cc1
T/C (dose: 100.0 mg/kg/injection, schedule: Q01DX009 (ip), vehicle: saline with Tween-80): 91 % of control | T/C (dose: 100.0 mg/kg/injection, schedule: Q04DX003 (ip), vehicle: saline with Tween-80): 86 % of control | T/C (dose: 200.0 mg/kg/injection, schedule: Q01DX009 (ip), vehicle: saline with Tween-80): 96 % of control | T/C (dose: 200.0 mg/kg/injection, schedule: Q04DX003 (ip), vehicle: saline with Tween-80): 94 % of control | T/C (dose: 400.0 mg/kg/injection, schedule: Q01DX009 (ip), vehicle: saline with Tween-80): 102 % of control | T/C (dose: 400.0 mg/kg/injection, schedule: Q04DX003 (ip), vehicle: saline with Tween-80): 95 % of control
